Laboratory results: ChEMBL document CHEMBL1201862, “PubChem BioAssay data set” (2004)
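Each compound was tested at five concentrations against cells in 96-well plates for 48 hours. GI50 marks 50% less growth.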 Activity calls are given as the source filed them. Rule as the data show it: active = GI50 up to about 1.1 µM and inactive = higher.

What was measured:
Test in all cases: inhibition of tumour cell growth, NCI panel, 48 h
PC-3 = tested on: PC-3
UACC-257 = tested on: UACC-257
NCI-H226 = tested on: NCI-H226
HOP-92 = tested on: HOP-92
T47D = tested on: T47D
MDA-MB-231 = tested on: MDA-MB-231
TK-10 = tested on: TK-10
ACHN = tested on: ACHN
NCI-H460 = tested on: NCI-H460
DU-145 = tested on: DU-145
SK-MEL-28 = tested on: SK-MEL-28
HCC 2998 = tested on: HCC 2998
K562 = tested on: K562
SR = tested on: SR
HCT-116 = tested on: HCT-116
IGROV-1 = tested on: IGROV-1
BT-549 = tested on: BT-549
SF-268 = tested on: SF-268
OVCAR-8 = tested on: OVCAR-8
SNB-75 = tested on: SNB-75
NCI/ADR-RES = tested on: NCI/ADR-RES
HT-29 = tested on: HT-29
LOX IMVI = tested on: LOX IMVI
SN12C = tested on: SN12C
RPMI-8226 = tested on: RPMI-8226
COLO 205 = tested on: COLO 205
SK-MEL-2 = tested on: SK-MEL-2
MDA-N = tested on: MDA-N
OVCAR-5 = tested on: OVCAR-5
SK-MEL-5 = tested on: SK-MEL-5
U-251 = tested on: U-251
MDA-MB-435 = tested on: MDA-MB-435
EKVX = tested on: EKVX
M14 = tested on: M14
HOP-62 = tested on: HOP-62
SW-620 = tested on: SW-620
UACC-62 = tested on: UACC-62
CCRF-CEM = tested on: CCRF-CEM
RXF 393 = tested on: RXF 393
UO-31 = tested on: UO-31
786-0 = tested on: 786-0
SF-295 = tested on: SF-295
MCF7 = tested on: MCF7
OVCAR-3 = tested on: OVCAR-3
A498 = tested on: A498
NCI-H23 = tested on: NCI-H23
MOLT-4 = tested on: MOLT-4
A549 = tested on: A549
CAKI-1 = tested on: CAKI-1
HCT-15 = tested on: HCT-15
SF-539 = tested on: SF-539
OVCAR-4 = tested on: OVCAR-4
KM12 = tested on: KM12
SNB-19 = tested on: SNB-19

Measured: GI50

COC(=O)/C=C1\C(CO[Si](C)(C)C(C)(C)C)OC(n2ccc(=O)[nH]c2=O)C1O (centres undefined)
active: SF-268 0.367 µM
6.71 µM: HCT-15
inactive: PC-3 3.47 µM | UACC-257 4.73 µM | NCI-H226 5.58 µM | HOP-92 15.2 µM | T47D 3.63 µM | MDA-MB-231 34.5 µM | TK-10 24.2 µM | ACHN 12.6 µM | NCI-H460 5.9 µM | DU-145 7.06 µM | SK-MEL-28 6.25 µM | HCC 2998 7.71 µM | K562 5.4 µM | SR 6.98 µM | HCT-116 4.4 µM | IGROV-1 20 µM | BT-549 18.7 µM | OVCAR-8 8.95 µM | SNB-75 12.1 µM | NCI/ADR-RES 10.4 µM | HT-29 7.33 µM | LOX IMVI 6.41 µM | SN12C 8.57 µM | RPMI-8226 6.07 µM | COLO 205 4.26 µM | SK-MEL-2 6.25 µM | MDA-N 7.67 µM | OVCAR-5 16.5 µM | SK-MEL-5 6.28 µM | U-251 7.8 µM | MDA-MB-435 8.13 µM | EKVX 8.63 µM | M14 17.5 µM | HOP-62 13.2 µM | SW-620 9.73 µM | UACC-62 13.7 µM | CCRF-CEM 6.27 µM | RXF 393 9.84 µM | UO-31 9.89 µM | 786-0 6.04 µM | SF-295 9.82 µM | MCF7 4.91 µM | OVCAR-3 21.6 µM | A498 17.5 µM | NCI-H23 7.08 µM | MOLT-4 8.49 µM | A549 6.35 µM | CAKI-1 22.6 µM | SF-539 15.5 µM | OVCAR-4 15 µM | KM12 7.06 µM | SNB-19 18.5 µM
